Source: patent US20170071208A1, “COMPOSITIONS FOR MOSQUITO CONTROL AND USES OF SAME” (Forrest Innovations Ltd., priority 2014, published 2017)

What was measured:
Type in all cases: in vivo, Aedes aegypti
[1] = test system: sodium channel (AAEL008297) mRNA; assay: qPCR analysis of sodium channel mRNA expression after dsRNA treatment
Procedure: (§1) Third instar larvae were treated (in groups of 100 larvae) in a final volume of 3 mL of dsRNA solution in autoclaved water (0.5 μg/μL for sodium channel (AAEL008297), PgP (AAEL010379) and Ago3 (AAEL007823) dsRNA, or 0.1 μg/μL for CYP9J26 (JF924909.1). The control group was kept in 3 ml sterile water only. Larvae were soaked in the dsRNA solutions for 24 hr at 27° C., and then transferred into new containers (300 larvae/1500 mL of chlorine-free tap water), which were also maintained at 27° C., and were provided 6 mg/100 mL lab dog/cat diet (Purina Mills) suspended in water as a source of food on a daily basis. As pupae developed, they were transferred to individual vials to await eclosion and sex sorting. For bioassays purpose only females up to five days old were used. See Flowchart 1, FIG. 1 for detailed explanation of this experiment.
Total RNA was extracted from groups of five Ae. aegypti fourth instar larvae and early adult male/female Ae. aegypti, using TRIzol (Invitrogen, Carlsbad, Calif., USA) according to the manufacturer's instructions. RNA was treated with amplification grade DNase I (Invitrogen) and 1 μg was used to synthesize cDNA using a First Strand cDNA Synthesis kit (Invitrogen). PCR products were purified using a QIAquick PCR purification kit (Qiagen). The MEGAscript RNAi kit (Ambion) was then used for in vitro transcription and purification of dsRNAs. See Flowchart 4, FIG. 4 for detailed explanation production off dsRNA.
(§2) Approximately 1000 ng first-strand cDNA obtained as described previously was used as template. The qPCR reactions were performed using SYBR® Green PCR Master Mix (Applied Biosystems) following the manufacturer's instructions. […] Raw quantification cycle (Cq) values normalized against those of the tubulin and S7 standards were then used to calculate the relative expression levels in samples using the 2^−ΔΔct method [Livak & Schmittgen, (2001) Methods. […]

[2] = test system: Ae. aegypti mosquitoes (RJ strain); assay: dsRNA treatment of larvae (soaking, or soaking plus feeding), then pyrethroid adulticide bottle bioassay of adult females
Procedure: as §1
After soaking in the dsRNA solutions for 24 hr at 27° C., the larvae were transferred into new containers (300 larvae/1500 mL of chlorine-free tap water), and were provided agarose cubes containing 300 μg of dsRNA once a day for a total of four days. The larvae were reared until adult stage. For bioassays purpose only females up to five days old are used. See Flowchart 2, FIG. 2 for detailed explanation of this experiment.
Bottles were prepared following the Brogdon and McAllister (1998) protocol [Brogdon and McAllister (1998) Emerg Infect Dis 4:605-613]. Fifteen-twenty non-blood-fed females from each site were introduced in 250 mL glass bottles impregnated with different concentrations of deltamethrin (Sigma-Aldrich) in 1 ml acetone. Each test consisted of four impregnated bottles and one control bottle. The control bottle contained acetone with no insecticide. At least three tests were conducted for each insecticide and population. Immediately prior to use, all insecticide solutions were prepared fresh from stock solutions. At 15, 30 and 45 min intervals, the number of live and dead mosquitoes in each bottle was recorded. The mortality criteria included mosquitoes with difficulties flying or standing on the bottle's surface. Mosquitoes that survived the appropriate dose for insecticide were considered to be resistant [Brogdon and McAllister (1998), supra].
Cubes of dsRNA-containing mosquito food were prepared as follows: First, 300 μg of dsRNA were mixed with 30 μg of Polyethylenimine 25 kD linear (Polysciences) in 200 μL of sterile water. Then, a suspension of ground mosquito larval food (6 grams/100 mL) was prepared with 2% agarose (Fisher Scientific). The food/agarose mixture was heated to 55° C. and 200 μL of the mixture was then transferred to the tubes containing 200 μL of dsRNA+PEI or water only (control). The mixture was then allowed to solidify into a gel. The solidified gel containing both the food and dsRNA was cut into small pieces (approximately 1 mm thick) using a razor blade, which were then used to feed mosquito larvae in water.

[3] = test system: Ae. aegypti Rockefeller strain; assay: Egg hatching rate after larval dsRNA soaking plus feeding; conditions: larvae soaked 24 h in 0.5 μg/μL dsRNA, fed twice with agarose plug containing dsRNA; vs water control
Procedure: FIG. 12 is a flowchart illustration depicting introduction of dsRNA into mosquito larvae via soaking with different doses of “naked” dsRNA plus additional larvae feeding with food-containing dsRNA. Step a) 100 larvae from A. aegypti Rockefeller strain (3rd instar) were soaked for 24 hours with the respective dsRNAs (concentration range from 0.02-0.5 μg/μL) or only in water and were then fed 2 times with food plus agarose 2% containing dsRNA until they reach adult stage (Step b). Step c) The adults arising were allowed to copulate for 3-5 days. Step d) mosquitoes were fed with defibrinated sheep blood. Step e) after blood feeding 15 fully-engorged females were transferred into 3 small cages to be assayed for oviposition. Step f) the total number of laid eggs and the percentage of hatched eggs were counted. […] (FIG. 13A) The total number of laid eggs and the percentage of hatched eggs were counted (FIG. 13B). […]
(§3) Five days after the blood meal, an ovipositon cup was place inside each cage containing 15 females to allow the females to lay their eggs. […] The number of eggs laid was counted and used to check the viability and egg hatching rate.
To check the viability of the eggs the oviposition paper were kept to dry and embrionate for a period minimum of 5 days. […] The hatching rate (HR) for each treatment were calculated as follow: HR=total number of hatched larvae/total number of eggs oviposited). […]

[4] = test system: Ae. aegypti Rockefeller strain; assay: Oviposition assay after larval dsRNA soaking plus feeding; conditions: larvae soaked 24 h in 0.5 μg/μL dsRNA, fed twice with agarose plug containing dsRNA; 15 engorged females per cage; vs water control
Procedure: FIG. 12 is a flowchart illustration depicting introduction of dsRNA into mosquito larvae via soaking with different doses of “naked” dsRNA plus additional larvae feeding with food-containing dsRNA. Step a) 100 larvae from A. aegypti Rockefeller strain (3rd instar) were soaked for 24 hours with the respective dsRNAs (concentration range from 0.02-0.5 μg/μL) or only in water and were then fed 2 times with food plus agarose 2% containing dsRNA until they reach adult stage (Step b). Step c) The adults arising were allowed to copulate for 3-5 days. Step d) mosquitoes were fed with defibrinated sheep blood. Step e) after blood feeding 15 fully-engorged females were transferred into 3 small cages to be assayed for oviposition. Step f) the total number of laid eggs and the percentage of hatched eggs were counted. FIGS. 13A-B are graphs illustrating larvae from Ae. aegypti Rockefeller strain (3rd instar) soaked for 24 hours in 0.5 μg/μL of Aubergine (Aub) or Argonaute-3 (Ago) dsRNAs or water only. […] (FIG. 13A) The total number of laid eggs and the percentage of hatched eggs were counted (FIG. 13B). […]
as §3

[5] = test system: P-glycoprotein (AAEL010379) mRNA; assay: qPCR analysis of P-glycoprotein mRNA expression after dsRNA treatment; conditions: vs water
Procedure: as §1
Total RNA was extracted from groups of five Ae. aegypti fourth instar larvae and early adult male/female Ae. aegypti, using TRIzol (Invitrogen, Carlsbad, Calif., USA) according to the manufacturer's instructions. […]
as §2, with “template.” for “template. The qPCR reactions were performed using SYBR® Green PCR Master Mix (Applied Biosystems) following the manufacturer's instructions.”

sodium channel dsRNA: dsRNA targeting Ae. aegypti sodium channel (AAEL008297), SEQ ID NO: 1825
sodium channel mRNA expression level ([1]; adult female mosquitoes soaked as larvae, collected before deltamethrin treatment, vs water): decreased expression
sodium channel mRNA expression level ([1]; dead female mosquitoes collected after exposure to deltamethrin, compared to water-treated mosquitoes): striking decrease
sodium channel mRNA levels ([1]; larvae soaked 24 h in dsRNA, 24 and 48 hours after the end of dsRNA treatment, vs water): decreased mRNA levels
susceptibility of adult mosquitoes to deltamethrin (mortality rate) ([2]; 3rd instar larvae soaked 24 h in 0.5 μg/μL naked dsRNA vs water, adult females exposed to deltamethrin 0.5 μg/bottle): increased susceptibility
susceptibility of adult mosquitoes to deltamethrin (mortality rate) ([2]; 3rd instar larvae soaked 24 h in 0.5 μg/μL naked dsRNA vs water, adult females exposed to deltamethrin 0.5 μg/bottle, listed as dsRNA against sodium channel): increased substantially the susceptibility
susceptibility of adult mosquitoes to deltamethrin (mortality rate) ([2]; larvae soaked 24 h in 0.5 μg/μL dsRNA, then fed 4 times with food-containing dsRNA, adult females, deltamethrin 0.5 μg/bottle): increased susceptibility
susceptibility of adult mosquitoes to deltamethrin (mortality rate) ([2]; larvae soaked 24 h in 0.5 μg/μL dsRNA, then fed 4 times with food-containing dsRNA, adult females, deltamethrin 0.5 μg/bottle, listed as dsRNA against sodium channel): increased the susceptibility

B1: Cytochrome p450 (CYP9J26): dsRNA targeting Cytochrome p450 (CYP9J26, JF924909.1), SEQ ID NO: 1824 (nucleic acid)
chain: CTTCAACGACTTCGTCCGATCAATTTACAACAAATATCCTGGAGTGAAGGTTTTCGGAATGTTCGAGACGATCACGCCGTTCTTCGTGATTCGCGATCCGGAGTTGATCAAGCAGATCGGCATCAAGGATTTCGATCACTTCGTTGACCACCGTCCGACGTTCGGACTGGACGATGAAACGGCGGAGCATCCGAAGGCGCTGTTCCGCAAGACGCTGTTCTCGATGACCGGTCAACGGTGGAAGGAGATGCGCGCTACGCTGAGTCCGGCTTTTACCGGCAGTAAGATGCGACAGATGTTCTCGCTGATGAGCGAATGCTGCGACGAAATGATGAAGCACTACCTGGACAAGGCGAAGGGCACGGGAAGGGTGGAAGTCGAAATGAAGGACTTGCTGAGTCGAATCACTATCAATGTGATTGCGTCGTGTGCTTTTGGAATCAAGGTGGAC
modifications: double stranded RNA
susceptibility of adult mosquitoes to deltamethrin (mortality rate) ([2]; larvae soaked 24 h in 0.1 μg/μL dsRNA, then fed 4 times with food-containing dsRNA, adult females, deltamethrin 0.5 μg/bottle, first 15 minutes of contact): more sensitive
susceptibility of adult mosquitoes to deltamethrin (mortality rate) ([2]; larvae soaked 24 h in 0.1 μg/μL dsRNA, then fed 4 times with food-containing dsRNA, adult females, deltamethrin 0.5 μg/bottle, first 15 minutes of contact, listed as CYP9J29 dsRNA): affects the susceptibility

B2: Aub: dsRNA targeting PIWI protein Aub (AAEL007698), SEQ ID NO: 1858 (nucleic acid)
chain: TCTTCTCCACCACAGCCAATGGCGTACAGGCTGGAGAACAGGCAGATTGGACGGCCCATTTCCGTAACAATCCCATGTTCGCTACGGTGCGGTTGACGCGATGGTATTTGATCGTACCGAACCGGGCTTCACGTGAGGCCAACGATTTCCTGGGCTGCATGATTCAAGCCGCACGCGGTATGCGATTTGAGATTAGTAACTGTGAGGTGGTCACCATTCCGGACGACAACCCAGGTACCTATGTGCGAACATTGGACAATCTGCTGAATAAGGACCCGCAGTTGGTGATGTGCGTCGTGACCAACAATAAGGCCGATCGGTACACCGCCATCAAGAAGAAATGTTGCGTTGATCGTGCCATCCCAACGCAAGTCATGGTACAAAAAACGATCACACCAAAGGGTGGTAATGTACGAACACTCATGTCCGTG
modifications: double stranded RNA
number of hatched eggs (hatchability) [3]: 50%
oviposition rate (total number of laid eggs) [4]: no difference

B3: PgP: dsRNA targeting P-glycoprotein (AAEL010379), SEQ ID NO: 1822 (nucleic acid)
chain: TGGAAAAGTTGACATTGACGGGATCACGACAACTGATTTCCAGCTTGGCCGCATACGTTCACAAATGGGTCTCGTATCGCAAGAACCTGTTCTGTTTGATCGCACCATCGCGGAAAATATTGCTTATGGTGACAACACTCGCGAGATAAGCATGCCGGAGATAATCGAGGCATCCAAAATGGCAAACATTCACGAATTCATCGTCAATCTACCGAAGGGGTATGACACTAGCCTAGGAACCAAAGGAGCTCAATTGTCTGGTGGCCAAAAGCAACGTATTGCTATAGCTCGTGCTTTGGTTAGAAATCCACGAATCC
modifications: double stranded RNA
PgP mRNA expression ([5]; adult mosquitoes soaked with dsRNA as larvae): reached normal levels
PgP mRNA levels ([5]; larvae soaked 24 h in dsRNA, 24 and 48 hours after the end of dsRNA treatment): decreased mRNA levels
